Test system: soluble epoxide hydrolase (sEH)
Assay: Fluorescent assay for soluble epoxide hydrolase (CMNPC substrate), percent inhibition at the recited concentration
Format: biochemical
Conditions: Inhibition Conc. 50 nM
Excerpt: Fluorescent Assay for Mouse and Human Soluble Epoxide Hydrolase Recombinant mouse sEH (MsEH) and human sEH (HsEH) were produced in a baculovirus expression system as previously reported. Grant et al., J. Biol. Chem., 268:17628-17633 (1993); Beetham et al., Arch. Biochem. Biophys., 305:197-201 (1993). The expressed proteins were purified from cell lysate by affinity chromatography. Wixtrom et al., Anal. Biochem., 169:71-80 (1988). Protein concentration was quantified using the Pierce BCA assay using bovine serum albumin as the calibrating standard. The preparations were at least 97% pure as judged by SDS-PAGE and scanning densitometry. They contained no detectable esterase or glutathione transferase activity which can interfere with the assay. The assay was also evaluated with similar results in crude cell lysates or homogenate of tissues. The IC50s for each inhibitor were determined according to the following procedure: […] Jones P. D. et al.; Analytical Biochemistry 2005; 343: pp. 66-75) Bis/Tris HCl 25 mM pH 7.0 containing 0.1 mg/mL of BSA (buffer […] at 0.25 mM in DMSO. Mother solution of enzyme in buffer A (Mouse sEH at 6 μg/mL and Human sEH at 5 μg/mL). Inhibitor dissolved in DMSO at the appropriate concentration. In a black 96 well plate, fill all the wells with 150 μL of buffer A. Add 2 μL of DMSO in well A2 and A3, and then add 2 μL of inhibitor solution in A1 and A4 through A12. Add 150 μL of buffer A in row A, then mix several time and transfer 150 μL to row B. Repeat this operation up to row H. The 150 μL removed from row H is discarded. Add 20 μL of buffer A in column 1 and 2, then add 20 μL of enzyme solution to column 3 to 12. Incubate the plate for 5 minutes in the plate reader at 30° C. During incubation prepare the working solution of substrate by mixing 3.68 mL of buffer A (4×0.920 mL) with 266 μL (2×133 μL) of substrate solution). At t=0, add 30 μL of working substrate solution with multi-channel pipette labeled “Briggs 303” and start the reading ([S]final: 5 μM). Read with ex: 330 nm (20 nm) and em: 465 nm (20 nm) every 30 second for 10 minutes. The velocities are used to analyze and calculate the IC50s. Tables 1-7 above provide the percent inhibition of the enzyme when tested at the concentration recited therein.

Compound | % inh. [%]
CC(=O)N1CCC(NC(=O)NCC23CC4CC(CC(C4)C2)C3)CC1 [Compound 1-1, 1-(1-acetyl-piperidin-4-yl)-3-(1-adamantyl-methyl)-urea] | 87
O=C(Nc1ccc(C(F)(F)F)cc1)NC1CCN(c2ccc(C(F)(F)F)cn2)CC1 [Compound 2-1] | 13
O=C(Nc1ccc(C(F)(F)F)cc1)NC1CCN(c2ncccc2C(F)(F)F)CC1 [Compound 2-2] | 97
O=C(NC1CCN(c2ccccc2)CC1)NC12CC3CC(CC(C3)C1)C2 [Compound 2-3, 1-(1-adamantyl)-3-(1-phenylpiperidin-4-yl)urea] | 98
O=C(Nc1ccc(C(F)(F)F)cc1)NC1CCN(c2ccccc2)CC1 [Compound 2-5, 1-(1-phenylpiperidin-4-yl)-3-(4-(trifluoro-methyl)phenyl)urea] | 99
NC(=O)c1cccnc1N1CCC(NC(=O)Nc2ccc(C(F)(F)F)cc2)CC1 [Compound 2-6, 2-(4-(3-(4-(trifluoro-methyl)phenyl)ureido)-piperidin-1-yl)nicotinamide] | 60
NS(=O)(=O)c1ccc(C(=O)N2CCC(NC(=O)Nc3ccc(C(F)(F)F)cc3)CC2)cc1 [Compound 4-1, 4-(4-(3-(4-(trifluoromethyl)phenyl)ureido)piperidine-1-carbonyl)benzene-sulfonamide] | 90
NS(=O)(=O)c1ccc(C(=O)N2CCC(NC(=O)Nc3ccc(OC(F)(F)F)cc3)CC2)cc1 [Compound 4-2, 4-(4-(3-(4-(trifluoromethoxy)-phenyl)ureido)-piperidine-1-carbonyl)benzenesulfonamide] | 98
NS(=O)(=O)c1ccc(C(=O)N2CCC(NC(=O)NC34CC5CC(CC(C5)C3)C4)CC2)cc1 [Compound 4-3, 4-(4-(3-(1-adamantyl)ureido)-piperidine-1-carbonyl)benzene-sulfonamide] | 93
NS(=O)(=O)c1cccc(C(=O)N2CCC(NC(=O)NC34CC5CC(CC(C5)C3)C4)CC2)c1 [Compound 4-4, 3-(4-(3-(1-adamantyl)ureido)-piperidine-1-carbonyl)benzene-sulfonamide] | 93
CNS(=O)(=O)c1cccc(C(=O)N2CCC(NC(=O)NC34CC5CC(CC(C5)C3)C4)CC2)c1 [Compound 4-5, 3-(4-(3-(1-adamantyl)ureido)-piperidine-1-carbonyl)-N-methylbenzene-sulfonamide] | 99
NS(=O)(=O)c1cccc(C(=O)N2CCC(NC(=O)Nc3ccc(C(F)(F)F)cc3)CC2)c1 [Compound 4-6, 3-(4-(3-(4-(trifluoromethyl)phenyl)ureido)piperidine-1-carbonyl)benzene-sulfonamide] | 99
CNS(=O)(=O)c1ccc(C(=O)N2CCC(NC(=O)Nc3ccc(C(F)(F)F)cc3)CC2)cc1 [Compound 4-7, 4-(4-(3-(4-(trifluoromethyl)phenyl)ureido)piperidine-1-carbonyl)-N-methylbenzene-sulfonamide] | 92
CNS(=O)(=O)c1ccc(C(=O)N2CCC(NC(=O)NC34CC5CC(CC(C5)C3)C4)CC2)cc1 [Compound 4-8, 4-(4-(3-(1-adamantyl)ureido)-piperidine-1-carbonyl)-N-methylbenzene-sulfonamide] | 93
CNS(=O)(=O)c1cccc(C(=O)N2CCC(NC(=O)Nc3ccc(C(F)(F)F)cc3)CC2)c1 [Compound 4-9, N-methyl-3-(4-(3-(4-(trifluoromethyl)phenyl)ureido)piperidine-1-carbonyl)benzene-sulfonamide] | 99

Same assay, conditions: Inhibition Conc. 200 nM

Compound | % inh. [%]
CC(=O)N1CCC(NC(=O)NCc2ccc(C(F)(F)F)cc2)CC1 [Compound 1-3, 1-(1-acetylpiperidin-4-yl)-3-(4-(trifluoromethyl)benzyl)urea] | 93
CC(=O)N1CCC(NC(=O)NCCC(c2ccccc2)c2ccccc2)CC1 [Compound 1-7, 1-(1-acetypiperidin-4-yl)-3-(3,3-diphenylpropyl)urea] | 100
O=C(Nc1ccc(C(F)(F)F)cc1)NC1CCN(c2nccs2)CC1 [Compound 2-8, 1-(1-(thiazol-2-yl)piperidin-4-yl)-3-(4-(trifluoromethyl)phenyl)urea] | 98
CC(=O)N1CCC(NC(=O)NC23CC4CC(C2)C(=O)C(C4)C3)CC1 [Compound 3-9, 1-(1-acetylpiperidin-4-yl)-3-(4-oxoadamantyl)urea] | 42
CC(=O)N1CCC(NC(=O)NC23CC4CC(C2)C(F)(F)C(C4)C3)CC1 [Compound 3-10, 1-(1-acetylpiperidin-4-yl)-3-(4,4-difluoroadamantyl)urea] | 76
CC(=O)N1CCC(NC(=O)NC23CC4CC(C2)C(F)C(C4)C3)CC1 (stereo not drawn) [Compound 3-11, 1-(1-acetylpiperidin-4-yl)-3-(4-fluoroadamantyl)urea] | 88

Same assay, conditions: Inhibition Conc. 500 nM

Compound | % inh. [%]
CC(=O)N1CCC(NC(=O)NCC2CCCCC2)CC1 [Compound 1-2, 1-(1-acetylpiperidin-4-yl)-3-(cyclo-hexylmethyl)urea] | 92
CC(=O)N1CCC(NC(=O)NCCCCCCCCO)CC1 [Compound 1-6, 1-(1-acetylpiperidin-4-yl)-3-(8-hydroxyoctyl)urea] | 85
O=C(Nc1ccc(C(F)(F)F)cc1)NC1CCN(c2ncccc2C(=O)O)CC1 [Compound 2-7] | 64
CC(=O)N1CCC(NC(=O)NC23CC4(F)CC(F)(CC(F)(C4)C2)C3)CC1 [Compound 3-1, 1-(1-acetylpiperidin-4-yl)-3-(3,5,7-trifluoroadamant-1-yl)urea] | 70
CC(=O)N1CCC(NC(=O)NC23CC4CC(F)(CC(F)(C4)C2)C3)CC1 [Compound 3-3, 1-(1-acetylpiperidin-4-yl)-3-(3,5-difluoroadamant-1-yl)urea] | 63
CC(=O)N1CCC(NC(=O)NC23CC4CC(CC(F)(C4)C2)C3)CC1 [Compound 3-4, 1-(1-acetylpiperidin-4-yl)-3-(3-fluoroadamant-1-yl)urea] | 82

Same assay, conditions: Inhibition Conc. 2000 nM

Compound | % inh. [%]
CC(=O)N1CCC(NC(=O)NCC2CCOCC2)CC1 [Compound 1-4, 1-(1-acetylpiperidin-4-yl)-3-((tetrahydro-2H-pyran-4-yl)methyl)urea] | 80
COc1ccc(CNC(=O)NC2CCN(C(C)=O)CC2)cc1OC [Compound 1-5, 1-(1-acetylpiperidin-4-yl)-3-(3,4-dimethoxy-benzyl)urea] | 66
COC(=O)c1ccc(CNC(=O)NC2CCN(C(C)=O)CC2)cc1 [Compound 1-8, methyl 4-((3-(1-acetylpiperidin-4-yl)ureido)methyl)benzoate] | 95
O=C(Nc1ccc(OC(F)(F)F)cc1)NC1CCN(c2ccccc2)CC1 [Compound 2-9, 1-(1-phenylpiperidin-4-yl)-3-(4-(trifluoromethoxy)phenyl)urea] | 99
O=C(Nc1ccc(OC(F)(F)F)cc1)NC1CCN(c2ccc(F)cc2)CC1 [Compound 2-11, 1-(1-(4-fluorophenyl)piperidin-4-yl)-3-(4-(trifluoromethoxy)phenyl)urea] | 100
O=C(Nc1ccc(C(F)(F)F)cc1)NC1CCN(c2ccccc2F)CC1 [Compound 2-13, 1-(1-(2-fluorophenyl)piperidin-4-yl)-3-(4-(trifluoromethyl)phenyl)urea] | 18

Same assay, conditions: Inhibition Conc. 5000 nM

Compound | % inh. [%]
CC(=O)N1CCC(NC(=O)NC23CC4CC(C2)C(O)C(C4)C3)CC1 (single isomer, unassigned) [Compound 3-5, 1-(1-acetylpiperidin-4-yl)-3-(4-hydroxyadamant-1-yl)urea] | 87
CC(=O)N1CCC(NC(=O)NC23CC4CC(C2)C(O)C(C4)C3)CC1 (single isomer, unassigned) [Compound 3-7] | 81
CC(=O)N1CCC(NC(=O)NC23CC4CC(C2)C(O)C(C4)C3)CC1 (single isomer, unassigned) [Compound 3-8] | 76
O=C(NC1CCN(c2ccncc2)CC1)NC12CC3CC(CC(C3)C1)C2 [Compound 2-4, 1-(1-adamantyl)-3-(1-(pyridin-4-yl)piperidin-4-yl)urea] | 92
CC(=O)N1CCC(NC(=O)NC23CC4CC(CC(O)(C4)C2)C3)CC1 [Compound 3-2, 1-(1-acetylpiperidin-4-yl)-3-(3-hydroxyadamant-1-yl)urea] | 67

Same assay, conditions: Inhibition Conc. 50000 nM

Compound | % inh. [%]
CC(=O)N1CCC(NC(=O)NC23CC4CC(CC(C4)C2O)C3)CC1 (stereo not drawn) [Compound 3-6, 1-(1-acetylpiperidin-4-yl)-3-(2-hydroxyadamant-1-yl)urea] | 94
